Measured values published in the supplement of paper PMC10307832.

How the values were obtained:
Test in all cases: relative viability (nuclei count vs DMSO), 5 days (fraction); higher = more cells survive
RO-3306 + Alpelisib = compound: C1=CC2=C(C=CC(=C2)C=C3C(=O)NC(=NCC4=CC=CS4)S3)N=C1 [RO-3306] + Cc1nc(NC(=O)N2CCC[C@H]2C(N)=O)sc1-c1ccnc(C(C)(C)C(F)(F)F)c1 [Alpelisib] (partner 2 µM)
In short: (§1)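 Values are medians from duplicate plates. Each reflects relative viability, defined as the nuclei count of treated wells over that of vehicle wells. Lung cancer cell lines in 1536-well plates were pin-tool dosed one day after seeding with one drug alone or with a fixed anchor-drug dose plus five library-drug doses (not always all listed) in √10 steps, then fixed, stained and imaged at 4× after 5 days.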

[1] = compound: O=S(=O)(c1ccccc1)N(CC(F)(F)F)c1ccc(C(O)(C(F)(F)F)C(F)(F)F)cc1 + COc1cc2c(Oc3ccc(NC(=O)C4(C(=O)Nc5ccc(F)cc5)CC4)cc3F)ccnc2cc1OCCCN1CCOCC1 [Foretinib] (partner 0.25 µM)
In short: as §1

[2] = compound: O=S(=O)(c1ccccc1)N(CC(F)(F)F)c1ccc(C(O)(C(F)(F)F)C(F)(F)F)cc1 + CC(=O)Nc1cccc(-n2c(=O)n(C3CC3)c(=O)c3c(Nc4ccc(I)cc4F)n(C)c(=O)c(C)c32)c1 [Trametinib] (partner 0.02 µM)
In short: as §1

RO-3306 + Decitabine = compound: C1=CC2=C(C=CC(=C2)C=C3C(=O)NC(=NCC4=CC=CS4)S3)N=C1 [RO-3306] + Nc1ncn([C@H]2C[C@H](O)[C@@H](CO)O2)c(=O)n1 [Decitabine] (partner 2 µM)
In short: as §1

Row | Cell Line | relative viability (RO-3306 + Alpelisib; first compound 0.01 µM) | relative viability (RO-3306 + Alpelisib; first compound 0.03162 µM) | relative viability (RO-3306 + Alpelisib; first compound 0.1 µM) | relative viability (RO-3306 + Alpelisib; first compound 0.3162 µM) | relative viability (RO-3306 + Alpelisib; first compound 1 µM) | relative viability ([1]; first compound 0.8 µM) | relative viability ([1]; first compound 2.53 µM) | relative viability ([1]; first compound 8 µM) | relative viability ([2]; first compound 0.8 µM) | relative viability ([2]; first compound 2.53 µM) | relative viability ([2]; first compound 8 µM) | relative viability (RO-3306 + Decitabine; first compound 0.01 µM) | relative viability (RO-3306 + Decitabine; first compound 0.03162 µM) | relative viability (RO-3306 + Decitabine; first compound 0.1 µM) | relative viability (RO-3306 + Decitabine; first compound 0.3162 µM) | relative viability (RO-3306 + Decitabine; first compound 1 µM)
1 | NCI-H3122 | 0.635 | 0.738 | 0.832 | 0.762 | 0.788 | 0.891 | 0.792 | 1.05 | 0.166 | 0.143 | 0.221 | 0.406 | 0.345 | 0.379 | 0.461 | 0.42
2 | NCI-H1355 | 1 | 0.709 | 0.872 | 0.969 | 0.822 | 1.06 | 0.978 | 1.01 | 0.456 | 0.427 | 0.382 | 0.395 | 0.341 | 0.353 | 0.355 | 0.362
3 | NCI-H650 | 0.872 | 0.981 | 1.03 | 1.1 | 1.05 | 1.18 | 1.05 | 1.07 | 1.1 | 0.983 | 0.782 | 0.292 | 0.33 | 0.283 | 0.259 | 0.352
4 | NCI-H661 | 0.736 | 0.735 | 0.686 | 0.745 | 0.688 | 1.03 | 0.961 | 0.844 | 0.677 | 0.574 | 0.533 | 0.589 | 0.507 | 0.525 | 0.581 | 0.585
5 | NCI-H322M | 0.8 | 0.7 | 0.707 | 0.888 | 0.827 | 1.08 | 0.915 | 0.953 | 0.497 | 0.506 | 0.557 | 0.591 | 0.675 | 0.721 | 0.717 | 0.762
6 | PC-3 [JPC-3] | 1.1 | 1 | 1.02 | 0.98 | 0.98 | 1.1 | 0.983 | 0.951 |  | 0.678 | 0.678 | 0.84 | 0.777 | 0.82 | 0.802 | 0.817
7 | NCI-H1944 | 0.789 | 0.739 | 0.816 | 0.934 | 0.829 | 0.938 | 0.826 | 0.832 | 0.448 | 0.389 | 0.432 | 0.424 | 0.432 | 0.424 | 0.453 | 0.376
8 | HCC-827 | 1.04 | 1.05 | 0.921 | 0.946 | 1.06 | 1.04 | 1.02 | 0.922 | 0.527 | 0.503 | 0.244 | 0.339 | 0.316 | 0.345 | 0.379 | 0.289
